Results on four compounds are retold here after US12582680B2, “Pharmaceutical composition for prevention, amelioration, or treatment of skin disease” (priority 2019, dated 2026).

Experiment [1] relates to GF-WT mouse applied with imiquimod. The experiment in a line: Imiquimod-initiated inflammation in GF-WT mouse, squalene and mifepristone. It counts as in vivo. The protocol: Imiquimod (Beselna cream, manufactured by MOCHIDA PHARMACEUTICAL CO., LTD.) was applied onto the ears of a GF-WT mouse at a dose of 50 mg per mouse once a day for 5 consecutive days.
Further, in another group of mice, mifepristone (M8046-1G, manufactured by Sigma-Aldrich Co. LLC) was administered to the mice freely at 210 μg/mL in drinking water during the experimental period.

The subject of the next experiment is SPF-Tmem79-KO mouse. As to the kind of experiment: Antibiotic in drinking water, dermatitis clinical scores of SPF-Tmem79-KO mouse. It counts as in vivo. The conditions noted are these: 200 mg/mL in drinking water; FIG. 9B. Here is the method:
For the SPF-Tmem79-KO mouse and the control (SPF-WT mice), the clinical scores were evaluated on a 4-point scale of 0: normal, 1: mild, 2: moderate, and 3: severe for each of the four items of erythema, edema, erosion, and dryness. The degree of inflammation in the skin was evaluated by using the total value of the clinical scores of the four items. In the drawing, the SPF-Tmem79-KO mouse is described as “SPF Tmem79^−/−”, and the SPF-WT mouse is described as “SPF WT”. It can be understood that the SPF-Tmem79-KO mouse developed bimodal dermatitis.
Ampicillin (manufactured by NACALAI TESQUE, INC.) or fusidic acid (manufactured by Sigma-Aldrich Co. LLC.) was suspended in drinking water so as to be 200 mg/mL and the resultant drinking water was administered to the SPF-Tmem79-KO mouse, and the clinical scores were obtained with time.

In the next experiment the test system is S. aureus. The experiment in a line: Sensitivity to antibiotics, culture of skin bacteria in media containing antibiotics, number of colonies. The conditions noted are these: FIGS. 9C and 9D. It counts as cell-based. An excerpt: (§1) FIG. 9A is a schematic diagram showing an experimental flow. FIG. 9B is a graph that indicates changes over time of clinical scores in the skins of SPF-Tmem79^−/− mice inoculated with ampicillin (Amp) or fusidic acid (FA) being an antibiotic (ABx).
(§2) Further, the sensitivity of S. aureus and S. cohnii to both antibiotics was verified by using the antibiotics. The proliferation of S. aureus was suppressed by any one of the ampicillin and the fusidic acid (FIGS. 9C and 9D).

The test system of the next experiment is S. cohnii. The experiment is described as above. It counts as cell-based. Conditions: FIGS. 9C and 9E.
Excerpt: as §1, §2

The mark [2] stands for this setting: mifepristone 210 μg/mL in drinking water.

`CC#C[C@]1(O)CC[C@H]2[C@@H]3CCC4=CC(=O)CCC4=C3[C@@H](c3ccc(N(C)C)cc3)C[C@@]21C` [mifepristone]: in experiment [1] (setting [2]), the “suppression of imiquimod-initiated inflammation by S. cohnii, effect of mifepristone” value was “inhibited” and the “suppression of imiquimod-initiated inflammation by squalene, effect of mifepristone” value is reported as “inhibition of suppressive effect”.
Turning to `CC(C)=CCC/C(C)=C/CC/C(C)=C/CC/C=C(\C)CC/C=C(\C)CCC=C(C)C` [squalene], in experiment [1] (S. cohnii 2.0×10^7 CFU first 3 days, squalene 200 μl per mouse for 5 days, FIGS. 22B and 22C), the “imiquimod-initiated inflammation (ear swelling and lymph node swelling)” value is given as “almost the same as that of S. cohnii”.
`CC(=O)O[C@H]1C[C@@]2(C)[C@@H](C[C@@H](O)[C@H]3[C@@]4(C)CC[C@@H](O)[C@@H](C)[C@@H]4CC[C@@]32C)/C1=C(\CCC=C(C)C)C(=O)O` [fusidic acid]: in the experiment on SPF-Tmem79-KO mouse, the “degree of dermatitis (clinical scores)” value is reported as “alleviated”. Moreover, in the experiment on S. aureus, the “proliferation of S. aureus” value was “suppressed”. In the experiment with S. cohnii, the “proliferation of S. cohnii” value was “not suppressed”.
Take `CC1(C)S[C@@H]2[C@H](NC(=O)[C@H](N)c3ccccc3)C(=O)N2[C@H]1C(=O)O` [ampicillin]: the “degree of dermatitis (clinical scores)” value in the experiment with SPF-Tmem79-KO mouse is “alleviation of the dermatitis was not observed”. Further, the “proliferation of S. aureus” value in the experiment with S. aureus is on record as “suppressed”. Also, in the experiment on S. cohnii, the “proliferation of S. cohnii” value is “significantly suppressed”.
